# From US10376520B2, “Methods for the treatment of cardiovascular disorders” (Galapagos NV, priority 2015, dated 2019)
# Test system: Subjects With Active Crohn's Disease
# Experiment: LDL determination, Study 5 (Crohn's disease)
# Format: in vivo, human
# Conditions: for [LDL] Mean CFB - 10 weeks results / [LDL] Median CFB - 10 weeks results / [LDL] Mean CFB: 200 mg q.d.; for [LDL] Mean CFB: Study 5 10 weeks results
# Text: Double-Blind, Randomized, Placebo-Controlled, Multi-Centre Study to Investigate the Efficacy and Safety of Compound 1 in Subjects With Active Crohn's Disease With Evidence of Mucosal Ulceration.
# This is a double-blind, randomized, placebo-controlled, multi-centre Phase 2 study to investigate the efficacy and safety of Compound 1 administered once daily for the treatment of active CD with evidence of mucosal ulceration. The pharmacokinetics (including a PK substudy) and pharmacodynamics of Compound 1 and metabolite in CD will also be characterised.
# A total of 180 eligible subjects will be randomized to receive Compound 1 or placebo in addition to their stable background treatment (eg, corticosteroids, aminosalicylates, or CD-related antibiotics). The study will consist of 2 parts, with total treatment duration of 20 weeks. Randomization in Part 1 will be stratified according the subject's previous anti-TNF exposure/response, CRP level at Screening, and oral corticosteroid use at visit Day −1.
# After the first 10 weeks of treatment in Part 1, patients will be re-randomized for Part 2 as shown in the diagram below and will be stratified according to the subject's clinical response, previous anti-TNF exposure/response, and oral corticosteroid use at visit Day −1.
# The following assays were conducted at Eurofins Global Central Laboratory, Bergschot 71, 4817 PA Breda, The Netherlands, and at Quest Diagnostics, Clinical Trials, Quest House, 125-135 Staines Road, Hounslow, Middlesex, TW3 3JB, United Kingdom. The assays for Study 5 were performed at BARC Europe, 3B, Industrie Park, Zwijnaarde, B-9052 Ghent, Belgium.
# The determination of [LDL]-cholesterol is made using an automated method taking advantage of the selective micellary solubilization of [LDL]-cholesterol by a nonionic detergent and the interaction of a sugar compound and lipoproteins (VLDL and chylomicrons).
# When a detergent is included in the enzymatic method for cholesterol determination (cholesterol esterase, cholesterol oxidase coupling reaction), the relative reactivities of cholesterol in the lipoprotein fractions increase in this order: [HDL]<chylomicrons <VLDL <[LDL]. In the presence of Mg^2+, a sugar compound markedly reduces the enzymatic reaction of the cholesterol measurement in VLDL and chylomicrons. The combination of a sugar compound with detergent enables the selective determination of [LDL]-cholesterol in serum. (Friedewald et al., 1972; Rifai et al., 1992)
# Homogeneous enzymatic colorimetric assay.
# In the presence of peroxidase, the hydrogen peroxide generated reacts with 4-aminoantipyrine and Sodium N-(2-hydroxy-3-sulfopropyl)-3,5-dimethoxyaniline (HSDA) to form a purple-blue dye.
# The color intensity of this dye is directly proportional to the cholesterol concentration and is measured photometrically.
# Human serum and plasma samples [LDL] determination was done on a Roche/Hitachi Cobas c 701/702 system which automatically calculate the analyte concentration of each sample. Samples containing precipitates are centrifuged before performing the assay.
# [1] = 200 mg q.d. week 0 to 10, to 100 mg q.d. week 10 to 20, week 16
# [2] = 200 mg q.d. week 0 to 10, to 100 mg q.d. week 10 to 20, week 20
# [3] = 200 mg q.d. week 0 to 10, to placebo week 10 to 20, week 2
# [4] = 200 mg q.d. week 0 to 10, to placebo week 10 to 20, week 4
# [5] = 200 mg q.d. week 0 to 10, to placebo week 10 to 20, week 6
# [6] = 200 mg q.d. week 0 to 10, to placebo week 10 to 20, week 10
# [7] = 200 mg q.d. week 0 to 10, to placebo week 10 to 20, week 12
# [8] = 200 mg q.d. week 0 to 10, to placebo week 10 to 20, week 16
# [9] = 200 mg q.d. week 0 to 10, to placebo week 10 to 20, week 20
# [10] = continued 200 mg q.d. (N = 77), week 2
# [11] = continued 200 mg q.d. (N = 77), week 4
# [12] = continued 200 mg q.d. (N = 77), week 6
# [13] = continued 200 mg q.d. (N = 77), week 10
# [14] = continued 200 mg q.d. (N = 77), week 12
# [15] = continued 200 mg q.d. (N = 77), week 16
# [16] = continued 200 mg q.d. (N = 77), week 20
# [17] = placebo week 0 to 10, then 100 mg q.d. (N = 22), week 12
# [18] = placebo week 0 to 10, then 100 mg q.d. (N = 22), week 16
# [19] = placebo week 0 to 10, then 100 mg q.d. (N = 22), week 20
# [20] = placebo week 0 to 10, to 100 mg q.d. week 10 to 20, week 12
# [21] = placebo week 0 to 10, to 100 mg q.d. week 10 to 20, week 16
# [22] = placebo week 0 to 10, to 100 mg q.d. week 10 to 20, week 20
compound,measurement,setting,value
"O=C(Nc1nc2cccc(-c3ccc(CN4CCS(=O)(=O)CC4)cc3)n2n1)C1CC1 [Compound 1, cyclopropanecarboxylic acid {5-[4-(1,1-dioxo-thiomorpholin-4-ylmethyl)-phenyl]-[1,2,4]triazolo[1,5-a]pyridin-2yl}-amide]",[LDL] Mean CFB - 20 weeks results,[1],2.18%
same,[LDL] Median CFB - 20 weeks results,[1],−1.36%
same,[LDL] Mean CFB - 20 weeks results,[2],2.73%
same,[LDL] Median CFB - 20 weeks results,[2],1.65%
same,[LDL] Mean CFB - 20 weeks results,[3],2.69%
same,[LDL] Median CFB - 20 weeks results,[3],0.71%
same,[LDL] Mean CFB - 20 weeks results,[4],1.85%
same,[LDL] Median CFB - 20 weeks results,[4],2.44%
same,[LDL] Mean CFB - 20 weeks results,[5],3.72%
same,[LDL] Median CFB - 20 weeks results,[5],3.51%
same,[LDL] Mean CFB - 20 weeks results,[6],4.43%
same,[LDL] Median CFB - 20 weeks results,[6],1.84%
same,[LDL] Mean CFB - 20 weeks results,[7],4.55%
same,[LDL] Median CFB - 20 weeks results,[7],6.33%
same,[LDL] Mean CFB - 20 weeks results,[8],10.32%
same,[LDL] Median CFB - 20 weeks results,[8],6.34%
same,[LDL] Mean CFB - 20 weeks results,[9],6.12%
same,[LDL] Median CFB - 20 weeks results,[9],5.24%
same,[LDL] Mean CFB - 10 weeks results,week 2,2.833%
same,[LDL] Median CFB - 10 weeks results,week 2,−1.469%
same,[LDL] Mean CFB - 10 weeks results,week 4,1.997%
same,[LDL] Median CFB - 10 weeks results,week 4,−1.986%
same,[LDL] Mean CFB - 10 weeks results,week 6,1.743%
same,[LDL] Median CFB - 10 weeks results,week 6,0.992%
same,[LDL] Mean CFB - 10 weeks results,week 10,10.126%
same,[LDL] Median CFB - 10 weeks results,week 10,6.299%
same,[LDL] Mean CFB,week 2,0.025 mmol/L
same,[LDL] Mean CFB,week 4,-0.030 mmol/L
same,[LDL] Mean CFB,week 6,-0.012 mmol/L
same,[LDL] Mean CFB,week 10,0.150 mmol/L
same,[LDL] Mean CFB - 20 weeks results,[10],0.04 mmol/L
same,[LDL] Median CFB - 10 weeks results 20 weeks results,[10],-0.05 mmol/L
same,[LDL] Mean CFB - 20 weeks results,[11],-0.05 mmol/L
same,[LDL] Median CFB - 10 weeks results 20 weeks results,[11],-0.05 mmol/L
same,[LDL] Mean CFB - 20 weeks results,[12],-0.05 mmol/L
same,[LDL] Median CFB - 10 weeks results 20 weeks results,[12],-0.02 mmol/L
same,[LDL] Mean CFB - 20 weeks results,[13],0.20 mmol/L
same,[LDL] Median CFB - 10 weeks results 20 weeks results,[13],0.18 mmol/L
same,[LDL] Mean CFB - 20 weeks results,[14],0.14 mmol/L
same,[LDL] Median CFB - 10 weeks results 20 weeks results,[14],0.15 mmol/L
same,[LDL] Mean CFB - 20 weeks results,[15],0.21 mmol/L
same,[LDL] Median CFB - 10 weeks results 20 weeks results,[15],0.19 mmol/L
same,[LDL] Mean CFB - 20 weeks results,[16],0.22 mmol/L
same,[LDL] Median CFB - 10 weeks results 20 weeks results,[16],0.18 mmol/L
same,[LDL] Mean CFB - 20 weeks results,[17],0.09 mmol/L
same,[LDL] Median CFB - 10 weeks results 20 weeks results,[17],0.07 mmol/L
same,[LDL] Mean CFB - 20 weeks results,[18],0.05 mmol/L
same,[LDL] Median CFB - 10 weeks results 20 weeks results,[18],-0.06 mmol/L
same,[LDL] Mean CFB - 20 weeks results,[19],0.06 mmol/L
same,[LDL] Median CFB - 10 weeks results 20 weeks results,[19],0.03 mmol/L
same,[LDL] Mean CFB - 20 weeks results,[20],4.07%
same,[LDL] Median CFB - 20 weeks results,[20],2.14%
same,[LDL] Mean CFB - 20 weeks results,[21],5.28%
same,[LDL] Median CFB - 20 weeks results,[21],−2.00%
same,[LDL] Mean CFB - 20 weeks results,[22],7.29%
same,[LDL] Median CFB - 20 weeks results,[22],1.90%
